# Legend:
# HCT15 cells = test: In vitro cytotoxicity (MTT cell viability); format: cell-based, human; conditions: 24 hours
# Experimental: HCT15 cells were seeded at low density of 1×10^4 cells per well in 96 well-plates in medium containing DMEM/F12, 10% FBS, 1% sodium pyruvate, 1% Penicillin, Streptomycin, and Neomycin.
# (§1) Drug effect on cellular viability was evaluated using an assay based on the cleavage of the yellow dye 3-(4, 5-dimethyl-2-thiazolyl)-2, 5-diphenyl-2H-tetrazolium bromide (MTT) to purple formazan crystals by dehydrogenase activity in mitochondria.
# (§2) After drug treatment for 24 hours, medium was removed and cell layers were rinsed with medium following MTT diluted (0.5 mg/ml) in medium for 4 hours at 37° C. incubator (5% CO2).
# (§3) The cells were then added with 100 μl/well DMSO and the optical density of the cellular homogenate was measured at 570 nm using ELISA reader.
# (§4) The fraction of live cells was calculated by dividing the mean optical density obtained from treated cells by the mean optical density from untreated control cells.
# (§5) After drug treatment for 24 hr, medium was removed and cell layers were rinsed with medium following MTT diluted (0.5 mg/ml) in medium for 4 hours at 37° C. incubator (5% CO2).
# [1] = Body weight in xenograft nude mice model; format: in vivo, BALB/c athymic (nu+/nu+) mice; conditions: HT29 xenograft mice; 1.5 mg/kg Nimesulide or equivalent, tail vein, within 24 days
# Experimental: 3. Tumor sizes and body weight were measured every 3 or 5 days for the duration of the experiment.
# 6. Mice were administered via tail vein injections at doses of Nimesulide (1.5 mg/kg), HA-Nimesulide (equivalent to 1.5 mg/kg of Nimesulide) or PBS respectively with an interval of 48 or 72 hours.
# 7. The tumor size and change in body weight of each mouse were recorded.
# HT29 cells = test: In vitro cytotoxicity (MTT cell viability); format: cell-based, human; conditions: 24 hours
# Experimental: HT29 cells were seeded at low density of 1×10^4 cells per well in 96 well-plates in medium containing high glucose DMEM, 10% FBS, 1% sodium pyruvate, 1% Penicillin, Streptomycin, and Neomycin.
# as §1, §2, §3, §4, §5
# Drug effect on cellular viability was evaluated using an assay based on the cleavage of the yellow dye 3-(4,5-dimethyl-2-thiazolyl)-2,5-diphenyl-2H-tetrazolium bromide (MTT) to purple formazan crystals by dehydrogenase activity in mitochondria.
# [2] = Adhesion of fluorescent HA (HA-f) in colon tissue (IVIS image system); design: species or system SD-rat (Sprague-Dawley Rat); conditions: 0.5% HA-f, 2 hours
# Experimental: 1. 0.25 g high molecule weight sodium hyaluronate powder (HHA; Mw: 2 MDa; Freda) and 0.25 g low molecule weight sodium hyaluronate powder (LHA; Mw: 0.35 MDa; Freda) were added into 50 ml PBS buffer (Phosphate buffered saline) respectively to form 0.5% solution, and then stirred for 6 hours until the powder was totally dissolved. 0.25 g medium molecule weight sodium hyaluronate powder (MHA; Mw: 1 MDa; Freda) was added into 50 ml PBS buffer, and then stirred for 6 hours until the powder was totally dissolved and ready for use in the following steps.
# 2. Fluorescent HA (HA-f) was prepared by (1) 0.39 g MES free acid (2-(N-morpholino) ethanesulfonic acid, Calbiochem) and was dissolved in 100 ml dd water. (2) Solution A: 65 mg fluroresceinamine powder, (isomer I, Fluka) was dissolved in 9 ml 95% EtOH solution and then stirred for 10 minutes under a condition that light was prohibited. […] (8) The product after reaction was poured into a dialysis tubing (MW: 12000˜14000) in 5 L dd water as a dialysis solution and then stirred for 5 days at 4° C. under a condition that light was prohibited with dialysis solution being changed every 12 hours until the dialysis solution had no fluorescence. […]
# 7. All values are calculated as means of n observations. The histological index was analyzed by Student's t-test.
# [3] = Nimesulide series, 3.125-200 μM
# [4] = Lenalidomide series, 3.125-400 μM
compound,measurement,setting,value
"CS(=O)(=O)Nc1ccc([N+](=O)[O-])cc1Oc1ccccc1 [NiNO2, Nimesulide]","cytotoxicity effect (cell viability, MTT)",HCT15 cells; [3],generally better than modified production
same,average body weight,[1],almost the same
same,"cytotoxicity effect (cell viability, MTT)",HT29 cells; [3],generally better than modified production
sodium hyaluronate [350 KDa HA],fluorescent index of adhesion,"[2]; injured colon tissues, normal colon tissue defined as 1",obviously higher than HAs of the other two average molecular weights
sodium hyaluronate [1 MDa HA],fluorescent index of adhesion,[2]; normal or injured colon tissues,higher than 2 MDa HA
Nc1cccc2c1CN(C1CCC(=O)NC1=O)C2=O (stereo not shown) [Lenalidomide],"cytotoxicity effect (cell viability, MTT)",HCT15 cells; [4],almost the same in both cell lines
same,"cytotoxicity effect (cell viability, MTT)",HT29 cells; [4],almost the same in both cell lines

# Reference: patent US11229665B2, “Compound of glycosaminoglycan and its fabrication method as well as application” (Holy Stone Healthcare Co., Ltd., priority 2013, dated 2022)
